# In ChEMBL document CHEMBL3822398, “Design, synthesis and in vitro biological evaluation of short-chain C12-sphinganine and its 1,2,3-triazole analogs as potential antimicrobial and anti-biofilm agents” (Eur J Med Chem, 2016):
# Test system: Raoultella planticola
# Assay: Bactericidal activity against Klebsiella planticola MTCC 530 incubated for 24 hrs
# Format: functional
# Conditions: MTCC 530, 24 h
row,Structure (SMILES),MBC [µg/mL]
1,CCCCCCCCC[C@@H](O)[C@@H](N)CO,31.2

# Test system: Bacillus subtilis
# Assay: Antibacterial activity against Bacillus subtilis MTCC 121 incubated for 24 hrs at 37 degC by well diffusion method
# Format: functional
# Conditions: MTCC 121, 24 h
row,MIC [µg/mL],Structure (SMILES)
1,> 250,CCCCCCCCC[C@@H](O)[C@@H](N)CO

# Test system: Candida albicans
# Assay: Antifungal activity against Candida albicans MTCC 183 incubated for 24 hrs at 30 degC by well diffusion method
# Format: functional
# Conditions: MTCC 183, 24 h
row,MIC [µg/mL],Structure (SMILES)
1,15.6,CCCCCCCCC[C@@H](O)[C@@H](N)CO

# Test system: Candida albicans
# Assay: Fungicidal activity against Candida albicans MTCC 227 incubated for 24 hrs
# Format: functional
# Conditions: MTCC 227, 24 h
row,Structure (SMILES),MFC [µg/mL]
1,CCCCCCCCC[C@@H](O)[C@@H](N)CO,62.5

# Test system: Micrococcus luteus
# Assay: Antibacterial activity against Micrococcus luteus MTCC 2470 incubated for 24 hrs at 37 degC by well diffusion method
# Format: functional
# Conditions: MTCC 2470, 24 h
row,MIC [µg/mL],Structure (SMILES)
1,3.9,CCCCCCCCC[C@@H](O)[C@@H](N)CO

# Test system: Micrococcus luteus
# Assay: Bactericidal activity against Micrococcus luteus MTCC 2470 incubated for 24 hrs
# Format: functional
# Conditions: MTCC 2470, 24 h
row,Structure (SMILES),MBC [µg/mL]
1,CCCCCCCCC[C@@H](O)[C@@H](N)CO,7.8

# Test system: Staphylococcus aureus
# Assay: Bactericidal activity against Staphylococcus aureus MLS16 MTCC 2940 incubated for 24 hrs
# Format: functional
# Conditions: MLS16 MTCC 2940, 24 h
row,Structure (SMILES),MBC [µg/mL]
1,CCCCCCCCC[C@@H](O)[C@@H](N)CO,31.2

# Test system: Candida albicans
# Assay: Antifungal activity against Candida albicans MTCC 3017 incubated for 24 hrs at 30 degC by well diffusion method
# Format: functional
# Conditions: MTCC 3017, 24 h
row,MIC [µg/mL],Structure (SMILES)
1,15.6,CCCCCCCCC[C@@H](O)[C@@H](N)CO

# Test system: Nakaseomyces glabratus
# Assay: Antifungal activity against Candida glabrata MTCC 3019 incubated for 24 hrs at 30 degC by well diffusion method
# Format: functional
# Conditions: MTCC 3019, 24 h
row,MIC [µg/mL],Structure (SMILES)
1,7.8,CCCCCCCCC[C@@H](O)[C@@H](N)CO

# Test system: Candida albicans
# Assay: Antifungal activity against Candida albicans MTCC 1637 incubated for 24 hrs at 30 degC by well diffusion method
# Format: functional
# Conditions: MTCC 1637, 24 h
row,MIC [µg/mL],Structure (SMILES)
1,15.6,CCCCCCCCC[C@@H](O)[C@@H](N)CO

# Test system: Candida albicans
# Assay: Fungicidal activity against Candida albicans MTCC 4748 incubated for 24 hrs
# Format: functional
# Conditions: MTCC 4748, 24 h
row,Structure (SMILES),MFC [µg/mL]
1,CCCCCCCCC[C@@H](O)[C@@H](N)CO,31.2

# Test system: Staphylococcus aureus
# Assay: Antibacterial activity against Staphylococcus aureus MTCC 96 incubated for 24 hrs at 37 degC by well diffusion method
# Format: functional
# Conditions: MTCC 96, 24 h
row,MIC [µg/mL],Structure (SMILES)
1,> 250,CCCCCCCCC[C@@H](O)[C@@H](N)CO

# Test system: Pichia kudriavzevii
# Assay: Fungicidal activity against Candida krusei MTCC 3020 incubated for 24 hrs
# Format: functional
# Conditions: MTCC 3020, 24 h
row,Structure (SMILES),MFC [µg/mL]
1,CCCCCCCCC[C@@H](O)[C@@H](N)CO,31.2

# Test system: Candida albicans
# Assay: Fungicidal activity against Candida albicans MTCC 3017 incubated for 24 hrs
# Format: functional
# Conditions: MTCC 3017, 24 h
row,Structure (SMILES),MFC [µg/mL]
1,CCCCCCCCC[C@@H](O)[C@@H](N)CO,31.2

# Test system: Escherichia coli
# Assay: Antibacterial activity against Escherichia coli MTCC 739 incubated for 24 hrs at 37 degC by well diffusion method
# Format: functional
# Conditions: MTCC 739, 24 h
row,MIC [µg/mL],Structure (SMILES)
1,15.6,CCCCCCCCC[C@@H](O)[C@@H](N)CO

# Test system: [Candida] aaseri
# Assay: Antifungal activity against Candida aaseri MTCC 1962 incubated for 24 hrs at 30 degC by well diffusion method
# Format: functional
# Conditions: Yamadazyma aaseri, MTCC 1962, 24 h
row,MIC [µg/mL],Structure (SMILES)
1,15.6,CCCCCCCCC[C@@H](O)[C@@H](N)CO

# Test system: Candida albicans
# Assay: Fungicidal activity against Candida albicans MTCC 3958 incubated for 24 hrs
# Format: functional
# Conditions: MTCC 3958, 24 h
row,Structure (SMILES),MFC [µg/mL]
1,CCCCCCCCC[C@@H](O)[C@@H](N)CO,31.2

# Test system: Candida albicans
# Assay: Antifungal activity against Candida albicans MTCC 854 incubated for 24 hrs at 30 degC by well diffusion method
# Format: functional
# Conditions: MTCC 854, 24 h
row,MIC [µg/mL],Structure (SMILES)
1,31.2,CCCCCCCCC[C@@H](O)[C@@H](N)CO

# Test system: Candida albicans
# Assay: Fungicidal activity against Candida albicans MTCC 854 incubated for 24 hrs
# Format: functional
# Conditions: MTCC 854, 24 h
row,Structure (SMILES),MFC [µg/mL]
1,CCCCCCCCC[C@@H](O)[C@@H](N)CO,31.2

# Test system: Candida parapsilosis
# Assay: Antifungal activity against Candida parapsilosis MTCC 1744 incubated for 24 hrs at 30 degC by well diffusion method
# Format: functional
# Conditions: Lodderomyces parapsilosis, MTCC 1744, 24 h
row,MIC [µg/mL],Structure (SMILES)
1,62.5,CCCCCCCCC[C@@H](O)[C@@H](N)CO

# Test system: Nakaseomyces glabratus
# Assay: Fungicidal activity against Candida glabrata MTCC 3019 incubated for 24 hrs
# Format: functional
# Conditions: MTCC 3019, 24 h
row,Structure (SMILES),MFC [µg/mL]
1,CCCCCCCCC[C@@H](O)[C@@H](N)CO,7.8
